Data on eleven compounds can be found in ChEMBL document CHEMBL1201862, “PubChem BioAssay data set” (2004).

Holding throughout (assay): inhibition of tumour cell growth, NCI panel, 48 h
The subject of assay [1] is 786-0.
Assay [2] has as its system A498.
Assay [3] relates to CAKI-1.
In assay [4] the test system is CCRF-CEM.
Assay [5] has as its system COLO 205.
The subject of assay [6] is DU-145.
For assay [7], the system named is HCT-15.
Assay [8] has as its system HL-60.
Assay [9] relates to MDA-MB-435.
The test system of assay [10] is Malme-3M.
The test system of assay [11] is NCI-H23.
The subject of assay [12] is NCI/ADR-RES.
For assay [13], the system named is OVCAR-3.
In assay [14] the test system is SF-268.
The test system of assay [15] is SF-295.
Assay [16] deals with SW-620.
In assay [17] the test system is U-251.
The test system of assay [18] is UO-31.
Assay [19] concerns KM12.
The subject of assay [20] is RXF 393.

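Where inhibition never reached the appropriate level, the endpoint shown equals the highest concentration tested. Otherwise, values were interpolated linearly from a five-concentration, 48-hour dose response in 96-well plates. Abbreviation: GI50, concentration required for 50% inhibition of growth.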 Activity calls are given as the source filed them. Cut-off read from the data, not from the text of the source: active = GI50 up to about 1.1 µM and inactive = higher. Bounds are passed on as bounds.

In the case of `CC(=O)OCC1OC(O[C@@H]2C[C@H]3C(C)(C)[C@H](OC(C)=O)CC[C@]3(C)[C@H]3CC[C@]4(C)C(=CC[C@H]4[C@@H](C)C[C@@H](O)[C@H](O)C(C)(C)O)[C@@]32C)C(O)C(O)C1O` (stereo partly drawn), the GI50 was 16.4 µM (inactive) in assay [1]; 19.9 µM (inactive) in assay [2]; 14.2 µM (inactive) in [3]; 17.6 µM (inactive) in [4]; 14 µM (inactive) in assay [5]; 17.3 µM (inactive) in assay [6]. The GI50 in assay [7] was 17.3 µM; in assay [8] it was 15.7 µM (inactive); in [9] it was 14.8 µM (inactive); in assay [10] it was 17.8 µM (inactive); in assay [11] it was 18.6 µM (inactive); in assay [12], > 100 µM (inactive). The GI50 in [13] is 15.4 µM (inactive); in [14], 15.8 µM (inactive); in [15] it was 18.7 µM (inactive); in assay [16] it was 17.9 µM (inactive); in assay [17] it was 12.7 µM (inactive); in [18] it was 17.4 µM (inactive).
As for `COC(=O)c1cc(/C=C2\Cc3cc4c(cc3C2=O)CCC4)cc2c1CCC2`, the GI50 in assay [1], in assay [2], in assay [3], in [4], in assay [5] and in assay [6] was > 100 µM (inactive) throughout. Besides, the GI50 is > 100 µM in assay [7]; > 100 µM (inactive) in [8]; > 100 µM (inactive) in assay [19]; > 100 µM (inactive) in assay [9]; > 100 µM (inactive) in [10]; > 100 µM (inactive) in [11]. The GI50 in assay [12], in assay [13], in assay [14], in assay [15], in assay [16] and in assay [17] was > 100 µM (inactive) in each case. The GI50 in assay [18] is > 100 µM (inactive).
Consider `O=C(NO)c1ccc(OCc2cccc(Cl)c2)cc1`, for which the GI50 was 6.11 µM (inactive) in assay [1]; 4.81 µM (inactive) in [2]; 6.65 µM (inactive) in assay [3]; 2.66 µM (inactive) in [4]; 7.35 µM (inactive) in assay [5]; 7.59 µM (inactive) in assay [6]. In addition, the GI50 in assay [7] was 4.57 µM; in assay [8] it was 2.47 µM (inactive); in assay [19], 11.9 µM (inactive); in assay [9], 6.67 µM (inactive); in assay [11], 5.3 µM (inactive); in assay [12], 2.13 µM (inactive). For the same compound, the GI50 in [13] is 4.55 µM (inactive); in assay [20], 10.2 µM (inactive); in assay [14], 10.7 µM (inactive); in [15], 9.33 µM (inactive); in assay [16] it was 5.08 µM (inactive); in assay [17], 11.6 µM (inactive). Besides, the GI50 in [18] is 7.43 µM (inactive).
Consider `Nc1nc(Cl)c2ncn(Cc3ccccc3CCl)c2n1`, for which the GI50 is 16.9 µM (inactive) in assay [1]; 20.5 µM (inactive) in assay [2]; 6.65 µM (inactive) in assay [3]; 17.7 µM (inactive) in [4]; 5.05 µM (inactive) in assay [5]; 14.7 µM (inactive) in [6]. The GI50 was 2.69 µM in assay [7]; 3.72 µM (inactive) in assay [8]; 15.7 µM (inactive) in assay [19]; 6.07 µM (inactive) in assay [9]; 3.36 µM (inactive) in assay [10]; 3.03 µM (inactive) in [11]. Also, the GI50 in assay [12] is 4.52 µM (inactive); in [13] it was 3.37 µM (inactive); in assay [14], 4.71 µM (inactive); in assay [15], 7.4 µM (inactive); in [16], 3.3 µM (inactive); in assay [17] it was 3.46 µM (inactive). For the same compound, the GI50 in assay [18] was 15.7 µM (inactive).
As to `CCCCOC(=O)NC(c1ccccc1)C(O)C(=O)OC1C[C@@]2(O)C(OC(=O)c3ccccc3)C3[C@](C)(C(=O)[C@H](OC(C)=O)C(=C1C)C2(C)C)[C@@H](O)C[C@H]1OC[C@@]31OC(C)=O` (stereo partly drawn), the GI50 is 0.00875 µM (active) in assay [1]; 0.0056 µM (active) in assay [2]; 0.00425 µM (active) in assay [4]; 0.00652 µM (active) in assay [5]; 0.0125 µM (active) in assay [6]; 0.145 µM in assay [7]. For the same compound, the GI50 in assay [8] was 0.00345 µM (active); in [19] it was 0.0031 µM (active); in assay [9], 0.00224 µM (active); in assay [11] it was 0.0139 µM (active); in assay [12], 2 µM (inactive); in assay [13], 0.00906 µM (active). Also, the GI50 was 0.0156 µM (active) in [20]; 0.0113 µM (active) in [14]; 0.0159 µM (active) in assay [15]; 0.00627 µM (active) in [16]; 0.00807 µM (active) in assay [17]; 0.176 µM (active) in assay [18].
With `CCOC(=O)c1cc(=O)c2ccnc3c2n1CCS3`, the GI50 is > 100 µM (inactive) in assay [1]; > 100 µM (inactive) in assay [2]; > 100 µM (inactive) in assay [3]; 48.5 µM (inactive) in assay [4]; > 100 µM (inactive) in assay [5]; > 100 µM (inactive) in assay [6]. The GI50 was > 100 µM in assay [7]; > 100 µM (inactive) in [8]; 40.9 µM (inactive) in assay [19]; > 100 µM (inactive) in [9]; 32.1 µM (inactive) in assay [11]; > 100 µM (inactive) in assay [12]. Moreover, the GI50 is 61.7 µM (inactive) in assay [13]; > 100 µM (inactive) in assay [14]; > 100 µM (inactive) in assay [15]; > 100 µM (inactive) in [16]; 43.9 µM (inactive) in assay [17]; 57.5 µM (inactive) in assay [18].
Turning to `CC(=O)NC1C(OCc2ccccc2)OC(CO)C(O)C1OCC(=O)N[C@@H](C)C(=O)N[C@H](CCC(=O)NCCCCNc1c2ccccc2nc2cccc([N+](=O)[O-])c12)C(N)=O` (stereo partly drawn), the GI50 in assay [1] is 0.998 µM (active); in assay [2] it was 2.16 µM (inactive); in [3] it was 1.49 µM (inactive); in assay [4] it was 4.11 µM (inactive); in [5], 0.684 µM (active); in assay [6], 1.91 µM (inactive). Besides, the GI50 in assay [7] was 1.97 µM; in assay [19] it was 1.83 µM (inactive); in assay [9], 1.62 µM (inactive); in assay [10] it was 1.34 µM (inactive); in [11], 0.984 µM (active); in assay [12], 16.7 µM (inactive). Further, the GI50 in [13] is 3.5 µM (inactive); in assay [20], 1.53 µM (inactive); in [14] it was 2.58 µM (inactive); in assay [15], 3.88 µM (inactive); in assay [16], 0.618 µM (active); in assay [17], 1.87 µM (inactive). The GI50 in [18] was 2.43 µM (inactive).
On to `COC(=O)C#CC1(O)C=CC(=O)C=C1`, for which the GI50 in [1] was 0.483 µM (active); in [2], 34 µM (inactive); in assay [3], 0.209 µM (active); in assay [4], 0.106 µM (active); in assay [5] it was 2.41 µM (inactive); in [6] it was 1.38 µM (inactive). Further, the GI50 in assay [7] was 0.248 µM; in assay [19], 0.843 µM (active); in assay [9] it was 0.436 µM (active); in assay [10], 2 µM (inactive); in [11], 1.57 µM (inactive); in assay [12], 0.525 µM (active). In addition, the GI50 in assay [13] is 0.367 µM (active); in assay [20], 1.58 µM (inactive); in assay [14], 0.664 µM (active); in assay [15], 8.69 µM (inactive); in assay [16], 0.299 µM (active); in assay [17], 0.841 µM (active). Moreover, the GI50 in [18] was 0.889 µM (active).
Take `CC(=O)Oc1c(C)cc2c(c1C)C(C)CN2C(C)=O` (stereo not drawn): the GI50 in [1] is > 100 µM (inactive); in assay [2] it was > 100 µM (inactive); in [4], > 100 µM (inactive); in assay [5], > 100 µM (inactive); in assay [6], > 100 µM (inactive); in [7], > 100 µM. Moreover, the GI50 in [8], in assay [19], in [9], in [11], in [12] and in assay [13] was > 100 µM (inactive) throughout. Besides, the GI50 in assay [20], in assay [14], in assay [15], in assay [16], in assay [17] and in [18] was > 100 µM (inactive) throughout.
Turning to `Cn1ccc(C(=O)N2CCSC2=S)c(OCc2ccccc2)c1=O`, the GI50 in [1] is > 100 µM (inactive); in assay [2] it was > 100 µM (inactive); in assay [3] it was 72.3 µM (inactive); in assay [4] it was 48.8 µM (inactive); in assay [5], > 100 µM (inactive); in assay [6], > 100 µM (inactive). The GI50 in [7] was > 100 µM; in [8], 54.8 µM (inactive); in [19], > 100 µM (inactive); in assay [9], > 100 µM (inactive); in assay [10], 87.7 µM (inactive); in assay [11], > 100 µM (inactive). The GI50 in assay [12] is > 100 µM (inactive); in assay [14] it was > 100 µM (inactive); in assay [16], > 100 µM (inactive); in assay [17] it was > 100 µM (inactive); in [18], 67.8 µM (inactive).
Regarding `O=C(CCc1ccc(O)c(O)c1)NCCc1cc(O)cc(OCc2ccccc2)c1`, the GI50 is 45.7 µM (inactive) in assay [1]; > 100 µM (inactive) in assay [2]; 12.6 µM (inactive) in assay [3]; 6.87 µM (inactive) in [4]; 20.6 µM (inactive) in [5]; 43.3 µM (inactive) in assay [6]. In addition, the GI50 in assay [7] was 11.6 µM; in assay [8] it was 10.9 µM (inactive); in [19], 29.7 µM (inactive); in assay [9] it was 27.2 µM (inactive); in assay [11] it was 21.6 µM (inactive); in [12] it was 43.5 µM (inactive). Also, the GI50 in assay [13] was 35.8 µM (inactive); in [20], 83.4 µM (inactive); in assay [14], 31.4 µM (inactive); in assay [15] it was 46.7 µM (inactive); in assay [16], 25.9 µM (inactive); in [17] it was 26.6 µM (inactive). Besides, the GI50 in [18] was 4.69 µM (inactive).
